Assay results published in patent US8193333B2, “Cancer therapy using Bcl-Xl-specific siNA” (Centre Regional de Lutte Contre le Cancer-Centre Francois …, priority 2006, dated 2012).

Tests used:
SKOV3 cells = test: Apoptosis induction in SKOV3 cells (cell and nuclear morphology after DAPI, caspase 3 activation and PARP cleavage by Western blot); format: cell-based, human
Protocol: (§1) Exponentially growing cells were exposed to CDDP for 2 hours at 37° C., in serum free medium. After exposure to the drug, the cell layers were rinsed and incubated in complete growth medium.
(§2) The siRNA duplexes were transfected according to the recommended procedure by using the Oligofectamine Reagent and Opti-MEM medium (INVITROGEN LIFE TECHNOLOGIES). 30-40% confluent cells were transfected in 25 cm^2 flasks with different concentrations of siXL1, siRNA Mcl-1 or siRNA control and incubated at 37° C., 5% CO2 for 4 hours. Next, 20% fetal bovin serum was added to reach a final concentration of 10% foetal bovin serum in the 25 cm^2 flask.
(§3) Cells were rinsed with ice cold PBS and lysed in 150 mM NaCl, 50 mM Tris-HCl pH 8, 1% Triton X100, 4 mM PMSF, 2 mM Aprotinin, 5 mM EDTA, 10 mM NaF, 10 mM NaPPi, 1 mM Na3VO4 for 30 min on ice. Lysates were clarified by centrifugation at 10000 g for 10 min at 4° C. and protein concentrations were determined using the Bradford assay (BIO-RAD). Equal amounts of total cellular protein (20 μg) were resolved in a Bis-tris-HCL buffered (pH 6.4) 4-12% polyacrylamide gel (NuPAGE® Novex® 4-12% Bis-tris gel, INVITROGEN) for 35 min at 200V and electrophoretically transferred on a PVDF membrane (MILLIPORE) for 75 min at 30V. The membrane was blocked for 1 hour at room temperature in T-TBS (132 mM NaCl, 20 mM Tris-HCl pH 7.6, 0.05% Tween 20) supplemented with 5% non-fat dry milk. The membrane was incubated for 1 hour at room temperature in T-TBS-milk with the following primary antibodies: anti-Bcl-XL/S (1:500, S18 SANTA-CRUZ BIOTECHNOLOGY), anti-PARP (1:1000, CELL-SIGNALING TECHNOLOGY), anti-caspase-3 (1:1000, BD BIOSCIENCES PHARMINGEN) anti-cleaved caspase-3 (1:1000, CELL-SIGNALING TECHNOLOGY), anti-alpha-tubulin (1:3000, SIGMA) and anti-Mcl-1 (1:750, S19 SANTA-CRUZ BIOTECHNOLOGY). After three washes with T-TBS, the membrane was incubated for 1 h at room temperature in T-TBS-milk with the adequate peroxidase conjugated secondary antibody (Anti-rabbit IgG, CELL-SIGNALING TECHNOLOGY, and anti-mouse IgG, AMERSHAM). After 3 washes with T-TBS and one with TBS, the immunoreactivity was detected by enhanced chemiluminescence (ECL kit, AMERSHAM).
After treatment, detached cells were collected separately and adherent cells were dissociated by trypsin/EDTA. Adherent and detached cells were then pooled and centrifuged at 1500×g for 5 min before being fixed in 70% ethanol. The cells were then collected on a polylysine-coated glass slide by cytocentrifugation, before a 30 min room temperature incubation in a 1 μg/ml DAPI aqueous solution (BOEHRINGER MANNHEIM). Slides were thereafter extensively washed in distilled water and mounted in Mowiol (CALBIO-CHEM).

Bcl-XL mRNA = test: RT-PCR of Bcl-XL mRNA in SKOV3 cells after siRNA transfection; format: cell-based, human; details: 72 h after transfection, FIG. 1A
Protocol: as §2
One μg of total RNA, extracted by RNAeasy kit (QIAGEN), was reverse-transcripted with 200 units Omniscript reverse transcriptase (QIAGEN) in first strand reaction conditions recommended by the manufacturer. The targeted cDNA were amplified using the following pair of primers, Bcl-XL/S forward 5′-[…]-3′ (SEQ ID NO: 11) and Bcl-XL/S reverse 5′-gtagagtggatggtcagtg-3′ (SEQ ID NO:12; Bargou et al., Int. J. Cancer, 1995, 16, 854-859), and amplified under the following cycling conditions: pre-incubation 94° C. for 5 min then 94° C. for 40 sec, 58° C. for 60 sec and 72° C. for 40 sec for 30 cycles, post-incubation 72° C. for 3 min within a Mastercycleur Gradient (EPPENDORF). The use of these primers allows the migration of Bcl-Xs and Bcl-XL PCR products as two distinct bands of respectively 576 and 765 bp.

Bcl-XL protein [1] = test: Western blot of Bcl-XL protein expression in tumour cell lines after siRNA transfection; format: cell-based, human
Protocol: SKOV3, OAW42, OAW42-R10, IGROV1 and IGROV1-R10 human ovarian adenocarcinoma cell lines, GL15 glioblastoma cell line, and NCI-H28 mesothelioma cell line were obtained from ECACC or ATCC. OAW42, OAW42-R10 cells were grown in DMEM (GIBCO-BRL) supplemented with 10% foetal calf serum (GIBCO-BRL), 2 mM Glutamax™ (GIBCO-BRL), 1 mM sodium pyruvate (GIBCO-BRL), 20 UI/L human recombinant insulin (LILLY), 33 mM sodium bicarbonate and 20 mM HEPES All the other cell lines were grown in RPMI 1640 medium (GIBCO-BRL) supplemented with 10% foetal calf serum (GIBCO-BRL), 2 mM Glutamax™ (GIBCO-BRL), 33 mM sodium bicarbonate and 20 mM HEPES. Cells were maintained at 37° C. in a 5% CO2 humidified atmosphere, and split twice a week by trypsinization.
as §1, §2, §3

Bcl-XL protein [2] = test: Immunohistochemical analysis of Bcl-XL protein in SKOV3 peritoneal tumour nodes of mice; format: in vivo, human; details: naked siXL1 5, 25 or 100 μg/kg, 3 days after injection
Protocol: […] […] The solution was quickly homogenized and left for 15 min at room temperature. It was injected intraperitoneally in mice as a 0.5 ml 5% glucose solution.
[…] Mice were killed 3 days after transfection and each organ (kidney, liver, spleen, pancreas, ovary, peritoneum, diaphragm, lung, heart and skeletal muscle) was washed with saline solution. Parts of each organs were either frozen in liquid nitrogen and stored at −80° C. for RT-PCR and western blot analysis, or formalin-fixed and paraffin-embedded for histological examination and immunohistochemical analysis.
Immunohistochemical staining was performed on paraffin-embedded material. To perform immunostaining, 4 μm-thick sections were dewaxed, rehydrated and treated 30 minutes by high-temperature-heating antigen retrieval technique in citrate buffer 0.1M pH6 to unmask epitopes. Sections were incubated 1 hour at room temperature with polyclonal antibody anti-Bcl-XL/S (S18) obtained from Santa Cruz (TEBU-BIO) and diluted 1:50. After washes, slides were incubated with Rabbit IgG Vectastain ABC Kit (VECTOR, ABCYS) according to the manufacturer instructions.

[3] = SKOV3 cells, 100 nM siXL1, FIG. 4

siXL1: double-stranded siRNA blocking Bcl-XL expression; sense 5′-auuggugagucggaucgcatt-3′ (SEQ ID NO: 5), anti-sense 5′-ugcgauccgacucaccaautt-3′ (SEQ ID NO: 6) (sense AUUGGUGAGUCGGAUCGCATT; antisense UGCGAUCCGACUCACCAAUTT; chemistry not given here)
caspase 3 activation and PARP cleavage after 24 h exposure to cisplatin (SKOV3 cells; 24 h, combination with 20 μg/ml cisplatin): detectable | apoptosis induction (cellular and nuclear morphology, caspase 3 cleavage) (SKOV3 cells; 72 h after transfection, FIG. 5): moderate apoptosis | apoptosis / cell death (nuclear fragmentation and condensation, morphology, pre-G1 peak) (SKOV3 cells; alone 150 nM or in combination 75 nM each, FIGS. 13 and 14): moderate apoptosis | Bcl-XL mRNA level (RT-PCR) (Bcl-XL mRNA): greatly reduces | optimal concentration (Bcl-XL protein [1]; SKOV3 cells): 150 nM | persistence of the siXL1 effect (Bcl-XL protein [1]; SKOV3 cells): 96 h | effect on Bcl-XL protein expression at lower dose (Bcl-XL protein [1]; SKOV3 cells, 25 nM, FIG. 4): greatly reduced and delayed | time of maximum decrease of Bcl-XL protein expression (Bcl-XL protein [1]; [3]): 72 h | time of reappearance of Bcl-XL protein expression (Bcl-XL protein [1]; [3]): ≥ 144 h | Bcl-XL protein expression 24 hours after transfection (Bcl-XL protein [1]; SKOV3 cells, 24 hours after siXL1 transfection): reduced | effect of various concentrations on Bcl-XL protein expression (Bcl-XL protein [1]; SKOV3 cells, 72 h after transfection, FIG. 3): dose-dependent | Bcl-XL protein expression 24 hours after exposure to cisplatin (Bcl-XL protein [1]; SKOV3 cells, 72 hours after siRNA transfection, cisplatin 5 and 20 μg/ml, FIG. 9): disappears almost completely | Bcl-XL protein expression after 72 hours (Bcl-XL protein [1]; SKOV3 cells, 72 hours after transfection, FIG. 1C): disappeared totally | Bcl-XL protein expression 96 hours after cisplatin exposure (Bcl-XL protein [1]; SKOV3 cells, 144 hours after transfection, combination with 20 μg/ml cisplatin, FIG. 9): reappears | Bcl-XL protein expression in various tumor cell lines (Bcl-XL protein [1]; ovarian carcinoma, glioblastoma or mesothelioma cells, 72 h after transfection, FIGS. 2A&B): extinction | Bcl-XL labelling intensity in tumour nodes (Bcl-XL protein [2]): decreases as the siXL1 dose increases
